Assay results reported in patent US10851075B2, “Stat3 pathway inhibitors and cancer stem cell inhibitors” (Sumitomo Dainippon Pharma Oncology, Inc., priority 2007, dated 2020).

Experiments:
HeLa cells = assay: MTT cell viability, HeLa; format: cell-based; conditions: Homo sapiens; Hela; MTT at 24 hours; Table 4; read-out: IC50 (μM) Hela
Excerpt: (§1) Cell Culture: HeLa, DU145, H1299, DLD1, SW480, A549, MCF7, LN18, HCT116, HepG2, Paca2, Panel, LNcap, FaDu, HT29, and PC3 cells (ATCC, Manassas, Va.) were maintained in Dulbecco's Modified Eagle Medium (DMEM) (Invitrogen, Carlsbad, Calif.) supplemented with 10% fetal bovine serum (MS) (Gemini Bio-Products, West Sacramento, Calif.) and 5% penicillin/streptomycin/amphotercin B (Invitrogen).
(§2) Cell Viability Determination: For 3-(4,5 dimethylthiazol-2-yl)-2,5-diphenyltetrazolium (MTT) (Sigma-Aldrich, St. Louis, Mo.) analysis, cells were plated in 96 well plates at 10,000 cells per well. 24 hours after plating, compound was added to cells at indicated doses. 22 hours following compound addition, MTT was added to each well (0.5 mg/ml, final concentration) and plates were incubated for an additional 2 hours at 37° C., Medium was then aspirated and the formazan product was solubilized in 100 μl of isopropyl alcohol. The absorbance of each well was measured at 570 nm using a microplate reader.
(§3) Identification of compounds that are apoptotic to a broad spectrum of cancer cells in vitro. Cells plated in 96 well plates and treated with indicated compounds were subjected to MTT analysis at 24 hours following compound treatment to determine cell viability.

DU145 cells = assay: MTT cell viability, DU145; format: cell-based; conditions: Homo sapiens, DU-145; DU145; MTT at 24 hours; Table 4; read-out: IC50 (μM) DU145
Excerpt: as §1, §2, §3

[1] = molecular target: T1, Stat3 DNA-binding activity (Homo sapiens, UniProt P40763); assay: Stat3 DNA binding assay (EMSA), HeLa nuclear extract; format: biochemical; conditions: for inhibition % 1 × MTT IC50: compound at 1 × MTT IC50, untreated Stat3 retarded band set as 100; for inhibition % 3 × MTT IC50: compound at 3 × MTT IC50, untreated Stat3 retarded band set as 100
T1 construct: endogenous in cells; host or cells: HeLa cells (nuclear extract)
T1 sequence (P40763 whole entry): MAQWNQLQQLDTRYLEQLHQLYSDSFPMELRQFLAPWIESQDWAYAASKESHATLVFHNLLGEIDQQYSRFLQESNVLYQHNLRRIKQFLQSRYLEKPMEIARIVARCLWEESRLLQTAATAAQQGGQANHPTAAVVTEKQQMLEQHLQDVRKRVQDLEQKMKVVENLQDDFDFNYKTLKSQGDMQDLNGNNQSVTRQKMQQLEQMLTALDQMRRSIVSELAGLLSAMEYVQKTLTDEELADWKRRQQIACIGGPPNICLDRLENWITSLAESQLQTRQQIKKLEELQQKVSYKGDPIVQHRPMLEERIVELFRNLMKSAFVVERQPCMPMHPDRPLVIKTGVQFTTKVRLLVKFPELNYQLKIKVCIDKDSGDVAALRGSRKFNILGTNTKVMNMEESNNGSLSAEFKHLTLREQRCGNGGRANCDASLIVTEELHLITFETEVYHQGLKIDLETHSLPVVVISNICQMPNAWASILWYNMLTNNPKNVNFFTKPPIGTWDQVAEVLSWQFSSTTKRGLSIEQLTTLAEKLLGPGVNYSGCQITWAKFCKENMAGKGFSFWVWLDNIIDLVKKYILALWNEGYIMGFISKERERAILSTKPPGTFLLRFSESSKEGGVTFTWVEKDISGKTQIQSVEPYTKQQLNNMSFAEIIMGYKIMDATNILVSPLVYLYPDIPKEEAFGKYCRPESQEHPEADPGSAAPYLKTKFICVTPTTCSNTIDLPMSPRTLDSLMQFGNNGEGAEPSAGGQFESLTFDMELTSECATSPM
Protocol: STAT3 DNA Binding Assay: Electrophoretic mobility shift assay (EMSA) was performed as described by the manufacturer (Li-Cor Biosciences, Lincoln, Nebr.). Briefly, nuclear extracts were made from HeLa cells using the NucBuster Protein Extraction Kit as described by the manufacturer (EMD Biosciences, San Diego, Calif.). 5 μg of nuclear extract was pre-incubated with the indicated dose of indicated compound for 30 minutes prior to a 15-minute incubation with the IR700-labeled consensus Stat3 oligonucleotide. Samples were then electrophoresed on a polyacrylamide gel and directly scanned using the Odyssey infrared imaging system (Li-Cor Biosciences). For the enzyme-linked immunosorbent assay (ELISA), 5 μg of nuclear extract was preincubated with indicated concentration of indicated compound for 30 minutes prior to the addition of biotinylated oligo (5′-Biotin-[…]-3′). Stat3-DNA complexes were then captured on streptavidin coated 96 well plates (Pierce, Rockford, Ill.). Bound complexes were then incubated with Stat3 polyclonal antibody (Santa Cruz Biotechnology, Santa Cruz, Calif.) followed by anti-rabbit HRP conjugated secondary antibody (GE Healthcare, Pittsburgh, Pa.). Bound antibody was then visualized by addition of TMB substrate (Pierce) and absorbance measured at 450 nm.
Inhibition of Stat3 DNA-binding activity. Nuclear extracts from HeLa cells, which contain constitutively activated Stat3 as detected by phoshporylation at the tyrosine 705 residue, were used to perform Stat3 EMSAs to monitor Stat3 DNA binding activity. Nuclear extracts were incubated with indicated compound prior to incubation with IR700-labeled Stat3 consensus oligonucleotide. Binding of Stat3 to the oligonucleotide was monitored by gel electrophoresis and detection using a LiCor Odyssey infrared scanner.
To calculate the inhibition %, the density of the untreated Stat3 retarded band (control) was set as 100 and the inhibition % was the difference between the control and the relative DNA binding activity of the drug-treated samples.

CD44^high FaDu cells = assay: Anti-CSC MTT assay, CD44high FaDu cells; format: cell-based; conditions: Homo sapiens, 48 h
Protocol: as §2
CD44^high cells were isolated by FACS according to the methods described in Ponti et al., with slight modification. Briefly, after trypsinization and recovery of cells for 30 minutes at 37° C. in growth media, cells were pelleted at 400×g and were resuspended in PBS with 2% FBS and 1 mM EDTA at 1×10^6 cells/mL. Cells were then incubated on ice with a 1:100 dilution of CD44-FITC (BD Biosicences, San Diego, Calif.) for 15 minutes. Alternatively, CD24-PE (BD Bioscences, San Diego, Calif.) (1:100) was utilized for negative selection. After washing three times, cells were resuspended at 2×10^6/mL and passed through a […] mesh before sorting
(§4) In order to test compounds for anti-CSC activity, freshly isolated CSCs (SW480 Hoechst SP cells or CD44^high FaDu cells) were exposed to a dose range (30-0.117 μM) of compound for 48 h before examining cell viability by MTT assay. IC50s were estimated by plotting the percentage of surviving cells. As shown in Table 7 and Table 8, the compounds of present invention can target cancer stem cells.

CD44^low FaDu cells = assay: Anti-CSC MTT assay, CD44low FaDu cells; format: cell-based; conditions: Homo sapiens, 48 h
H1299 cells = assay: MTT cell viability, H1299; format: cell-based; conditions: Homo sapiens, NCI-H1299; H1299; MTT at 24 hours; Table 4; read-out: IC50 (μM) H1299
Excerpt: as §1, §2, §3

SW480 Hoechst SP cells = assay: Anti-CSC MTT assay, SW480 Hoechst side population (SP) cells; format: cell-based; conditions: Homo sapiens, 48 h
Protocol: as §2
(§5) Hoechst Side Population: To identify and isolate side population (SP) and non-SP fractions, SW480 cells were removed from the culture dish with trypsin and EDTA, pelleted by centrifugation, washed with phosphate-buffered saline (PBS), and resuspended at 37° C. in Dulbecco's modified Eagle's medium (DMEM) containing 2% FBS and 1 rnM HEPES. The cells were then labeled with Hoechst 33342 (Invitrogen) at a concentration of 5 μg/mL. The labeled cells were incubated for 120 minutes at 37° C., either alone or with 50 μM verapamil (Sigma-Aldrich, St. Louis). After staining, the cells were suspended in Hanks' balanced saline solution (MISS; Invitrogen) containing 2% FBS and 1 mM HEPES, passed a through 40 μm mesh filter, and maintained at 4° C. until flow cytometry analysis. The Hoechst dye was excited at 350 nm, and its fluorescence was measured at two wavelengths using a 450 DF10 (450/20 nm band-pass filter) and a 675LP (675 nm long-pass edge filter) optical filter. The gating on forward and side scatter was not stringent, and only debris was excluded.
as §4

SW480 NSP cells = assay: Anti-CSC MTT assay, SW480 non-SP (NSP) cells; format: cell-based; conditions: Homo sapiens, 48 h
Protocol: as §2, §5, §4

C=Cc1cc2c(o1)C(=O)c1cc(F)ccc1C2=O [Compound 202]
IC50 (HeLa cells): 4.56 µM
IC50 (DU145 cells): 2.65 µM
inhibition % 1 × MTT IC50 [1]: 50%
inhibition % 3 × MTT IC50 [1]: 46%
IC50 (CD44^high FaDu cells): 2.4 µM
IC50 (CD44^low FaDu cells): 2.25 µM

O=C1c2ccccc2C(=O)c2oc(C(O)c3ccccc3)cc21 (stereo not drawn) [Compound 302]
IC50 (H1299 cells): 7.2 µM
IC50 (HeLa cells): 7.8 µM
IC50 (DU145 cells): 4.9 µM
inhibition % 1 × MTT IC50 [1]: 6%
inhibition % 3 × MTT IC50 [1]: 25%
IC50 (SW480 Hoechst SP cells): 2.06 µM
IC50 (SW480 NSP cells): 1.29 µM
IC50 (CD44^high FaDu cells): 0.68 µM
IC50 (CD44^low FaDu cells): 3.68 µM

CC(O)c1cc2c(o1)C(=O)c1cc(F)ccc1C2=O (stereo not drawn) [Compound 304]
IC50 (HeLa cells): 1.67 µM
IC50 (DU145 cells): 1.84 µM
inhibition % 1 × MTT IC50 [1]: 25%
inhibition % 3 × MTT IC50 [1]: 55%
IC50 (CD44^high FaDu cells): 2.41 µM
IC50 (CD44^low FaDu cells): 2.49 µM
